# Data from paper PMC9025941, “Influence of the Type of Amino Acid on the Permeability and Properties of Ibuprofenates of Isopropyl Amino Acid Esters” (International Journal of Molecular Sciences, 2022).
# “And” between values parts separate entries of the source, which are not always exact repeats. Equal values may be shown once. Read-outs that look alike come from different tables or passages of the source. Marks after values point to notes of the source that are not given here.
# How the values were obtained:
# [1] = n-octanol-water partition coefficient, shake flask method; settings: shake flask, 25 °C
# [2] = Solubility in organic solvents by modified Vogel's method; settings: 25 °C
# [3] = In vitro skin permeation, Franz diffusion cells; settings: for Q%24 h, the percentage of the applied dose permeated after 24 h / Cumulative Permeation Mass / LT, lag time: n = 3; for Q%24 h, the percentage of the applied dose permeated after 24 h / Cumulative Permeation Mass: 24 h; for EF, enhancement factor: relative to IBU; for JSS, steady-state flux: saturated solution in PBS pH 7.4, n = 3
# [4] = Solubility (saturation concentration) in deionised water and PBS pH 7.4, HPLC; settings: for Solubility in Phosphate Buffer pH = 7.4: PBS pH 7.4, 32 °C; for Solubility in Water: 25 °C
# [5] = Thermal stability (TG/DTG): decomposition onset and maximum mass-loss rate temperature
# Description: In Figure 5, the thermal stability of ibuprofen and amino acid isopropyl ester ibuprofenates was determined and compared. All TG, DTG, and c-DTA curves are in the Supplementary Materials (Figures S87–S100). The decomposition onset temperature (Tonset) and the temperature of the maximum rate of mass loss (Tmax) were determined.
# [6] = saturated solution in PBS pH 7.4, mass of compound
# [7] = saturated solution in PBS pH 7.4, mass of ibuprofen
Structure (SMILES),Log P (n-octanol-water partition coefficient) [1],Solubility in DMSO [2],Solubility in chloroform [2],Solubility in dichloromethane [2],Solubility in diethyl ether [2],Solubility in ethanol [2],Solubility in ethyl acetate [2],Solubility in n-hexane [2],Solubility in toluene [2],"Q%24 h, the percentage of the applied dose permeated after 24 h [3] [%]","Cumulative Permeation Mass [3, 6]","Cumulative Permeation Mass [3, 7]","LT, lag time [3] [h]","EF, enhancement factor [3]","JSS, steady-state flux [3] [µg IBU cm^−2 h^−1]",Solubility in Phosphate Buffer pH = 7.4 ([4]; g of active compound (IBU)) [g IBU∙dm^−3],Solubility in Phosphate Buffer pH = 7.4 ([4]; g of compound) [g∙dm^−3],Solubility in Water ([4]; g of active compound (IBU)) [g IBU∙dm^−3],Solubility in Water ([4]; g of compound) [g∙dm^−3],"Tonset, the onset temperature of the thermal degradation [5] [°C]",other results
"CC(C)Cc1ccc(C(C)C(=O)O)cc1.CC(C)OC(=O)[C@H](C)N [[L-AlaOiPr][IBU], L-alanine isopropyl ester ibuprofenate]",0.719 ± 0.004,+ (soluble >100 mg cm^−3),+ (soluble >100 mg cm^−3),+ (soluble >100 mg cm^−3),+/− (partially soluble 33–100 mg cm^−3),+ (soluble >100 mg cm^−3),+ (soluble >100 mg cm^−3),− (insoluble <33 mg cm^−3),+ (soluble >100 mg cm^−3),6.786 ± 0.214,572.719 ± 18.05 ^b µg·cm^−2,350.100 ± 11.039 ^b µg IBU·cm^−2,1.691 ± 0.041,0.92,44.510 ± 0.861,5.159 ± 0.015,8.440 ± 0.024,2.463 ± 0.008,4.030 ± 0.014,78.3,–
"CC(C)Cc1ccc(C(C)C(=O)O)cc1.CC(C)OC(=O)[C@@H](N)CS [[L-CysOiPr][IBU], L-cysteine isopropyl ester ibuprofenate]",1.430 ± 0.005,+ (soluble >100 mg cm^−3),+ (soluble >100 mg cm^−3),+ (soluble >100 mg cm^−3),–,+ (soluble >100 mg cm^−3),+/− (partially soluble 33–100 mg cm^−3),− (insoluble <33 mg cm^−3),–,12.210 ± 1.119,541.776 ± 49.664 ^b µg·cm^−2,305.756 ± 28.028 ^b µg IBU·cm^−2,1.873 ± 0.104,1.65,28.858 ± 2.984,2.440 ± 0.287,4.437 ± 0.287,1.143 ± 0.253,2.048 ± 0.253,190.2,–
"CC(C)C[C@H](N)C(=O)OC(C)C.CC(C)Cc1ccc(C(C)C(=O)O)cc1 [[L-LeuOiPr][IBU], L-leucine isopropyl ester ibuprofenate]",1.391 ± 0.001,+ (soluble >100 mg cm^−3),+ (soluble >100 mg cm^−3),+ (soluble >100 mg cm^−3),+/− (partially soluble 33–100 mg cm^−3),+ (soluble >100 mg cm^−3),+ (soluble >100 mg cm^−3),− (insoluble <33 mg cm^−3),+ (soluble >100 mg cm^−3),11.077 ± 0.236,424.683 ± 9.060 ^b µg·cm^−2,230.824 ± 4.924 ^b µg IBU·cm^−2,1.742 ± 0.061,1.50,38.502 ± 1.553,2.084 ± 0.002,3.834 ± 0.003,0.682 ± 0.038,1.255 ± 0.070,109.5,–
"CC(C)Cc1ccc(C(C)C(=O)O)cc1.CC(C)OC(=O)[C@@H](N)CCCCN [[L-LysOiPr][IBU], L-lysine isopropyl ester ibuprofenate]",–,+ (soluble >100 mg cm^−3),− (insoluble <33 mg cm^−3),− (insoluble <33 mg cm^−3),− (insoluble <33 mg cm^−3),+ (soluble >100 mg cm^−3),− (insoluble <33 mg cm^−3),− (insoluble <33 mg cm^−3),− (insoluble <33 mg cm^−3),11.062 ± 0.475,1011.106 ± 43.448 ^b µg·cm^−2,528.643 ± 22.716 µg IBU·cm^−2 and 528.643 ± 22.716 ^b µg IBU·cm^−2,1.423 ± 0.130,1.49,56.801 ± 4.129,4.779 ± 0.061,9.140 ± 0.117,5.047 ± 0.060,9.6534 ± 0.115,–,"Tonset, the onset temperature of the thermal degradation ([5]; TG): 177.9 °C"
"CC(C)Cc1ccc(C(C)C(=O)O)cc1.CC(C)OC(=O)[C@@H](N)Cc1ccccc1 [[L-PheOiPr][IBU], L-phenylalanine isopropyl ester ibuprofenate]",2.207 ± 0.026,+ (soluble >100 mg cm^−3),+ (soluble >100 mg cm^−3),+ (soluble >100 mg cm^−3),+/− (partially soluble 33–100 mg cm^−3),+ (soluble >100 mg cm^−3),+ (soluble >100 mg cm^−3),− (insoluble <33 mg cm^−3),+ (soluble >100 mg cm^−3),35.912 ± 0.539,711.866 ± 5.956 ^b µg·cm^−2,355.088 ± 5.482 ^b µg IBU·cm^−2,1.368 ± 0.091,4.85,48.578 ± 4.836,1.017 ± 0.001,2.039 ± 0.001,0.297 ± 0.024,0.595 ± 0.048,175.8,"KP, times higher than for ibuprofen [3]: 6.839 times"
